Data on 1 molecule can be found in patent publication US12636284B2, “Compositions for use in the prevention and/or treatment of intellectual disability and neurodegenerative diseases in a subject with down syndrome” (UNIVERSITA' DEGLI STUDI DI ROMA “LA SAPIENZA”, priority 2021, dated 2026).

What all share (type): in vivo, mouse
In data set [1] the test system is spontaneous neurotransmitter release in Eu mice. In words: Patch-clamp electrophysiology, CA1 neurons of hippocampal sections, euploid mice. The following applies: after 21 days intranasal treatment. An excerpt:
(§1) The brain sections containing the hippocampus were obtained from mice belonging to the four experimental groups (Eu Veh, Eu SITA, Ts2 Veh and Ts2 SITA) at 9 months of age after being euthanized by an overdose of isofluorane. Brains were quickly removed and placed in an ice-cold cutting solution containing the following (in mM): 124 NaCl, 3.2 KCl, 1 NaH2PO4, 2 MgCl2, 1 CaCl2), 26 NaHCO3, 10 glucose, 2 Na-pyruvate and 0.6 ascorbic acid, pH 7.4, 95% O2/5% CO2. The brain sections containing the hippocampus ([…]) were cut using a vibratome (VT1000S; Leica Microsystems) and immediately transferred to an incubation chamber filled with ACSF containing the following (in mM): 124 NaCl, 3.2 KCl, 1 NaH2PO4, 1 MgCl2, 2 CaCl2, 26 NaHCO3 and 10 glucose, pH 7.4, 95% O2/5% CO2. Brain sections were allowed to recover at 32° C. for 1 hour before being equilibrated to room temperature. For electrophysiological recordings, brain sections were transferred to a recording chamber constantly perfused with heated ACSF (32° C.) and bubbled with 95% O2/5% CO2. Subsequently, the slices were used for electrophysiological recordings. All electrophysiological recordings were performed using the patch-clamp technique in the whole-cell configuration. […] Membrane capacity and resistance were assessed in the same neurons. […]

The subject of data set [2] is GABAergic transmission in Ts2Cje mice. Put plainly: Patch-clamp electrophysiology, CA1 neurons of hippocampal sections, Ts2Cje mice. The following applies: Ts2Cje mice (Ts+S) vs vehicle-treated Ts2Cje, after 21 days intranasal treatment.
Source text: as §1

In data set [3] the test system is oxidative stress levels (3-NT, 4-HNE). Put plainly: Slot blot of oxidative stress markers 3-NT and 4-HNE in hippocampus. As to the method:
The samples (250 μl per well) were loaded into the wells of the slot-blot apparatus and transferred to a nitrocellulose membrane. The membrane was blocked for 2 h with a 3% solution of bovine serum albumin in T-TBS, and incubated with a primary anti-HNE polyclonal antibody (1:3000; HNE, NOVUS, #NB100-63093) or anti-3-NT (1:1000; Sigma Aldrich, #SAB52000009), for 2 hours at room temperature. The membrane was washed with T-TBS and incubated with alkaline phosphatase conjugated anti-rabbit or anti-mouse secondary antibody (1:5000, Sigma Aldrich) for 1 hour at room temperature. […] Finally, the results obtained were analyzed using the ImageLab program (Bio-rad, Hercules, CA, USA).

For data set [4], the system named is β-amyloid peptide 1-42. In words: ELISA Aβ 1-42 in hippocampus. Here is the method:
The 3x-Tg mouse, an animal model commonly used for the study of Alzheimer's disease (n=2/group), was used as a positive control for the production of β-amyloid 1-42. Briefly, ˜10 mg of hippocampus was homogenized in DEA buffer (10 μL/mg tissue; 0.2% diethanolamine and 50 mM NaCl) to which the protease inhibitor cocktail (1:100; Millipore) was added. The sample was centrifuged at 15,000 rpm for 1 hour 30 min at 4° C., the supernatant was stored for measuring ß-amyloid 1-42 following the instructions given by the kit manufacturer. The calculations for the quantization of β-amyloid were carried out using GraphPad Prism 8.0 software (GraphPad, La Jolla, CA, USA).
(An ELISA detects its analyte on a solid surface through an enzyme-linked reagent.)

A short description of data set [5]: Body weight, body surface area and body mass index during treatment. The following applies: Ts2Cje mice; sitagliptin 5 mM intranasal, 21 days. Here is the method: Finally, animals were sacrificed using cervical dislocation.
Furthermore, mice were measured at the beginning and at the end of the treatment to evaluate the length in centimeters (cm). For calculating the body mass surface, the DuBois equation was used: body surface area (m^2)=0.007184×weight ([…])×height ([…]). The body mass index was calculated as the ratio between weight and BSA (gr/m^2). At the end of the treatment, the glucose tolerance test (GTT) was carried out on the four experimental groups. After a fasting period of 6 hours, the animals' basal blood glucose was assessed with a small blood sample from the tail (T0). Subsequently, the same animals were treated with a glucose solution (10%, intraperitoneal injection) and blood glucose was measured with a glucometer (lineD ORO, Bioseven) after 30-60-90-120 minutes.

In data set [6] the test system is GSK3b protein. Put plainly: Western blot of GSK3b activation (pS9/pT216) in hippocampus. The conditions noted are these: brains (hippocampus) of Ts2Cje mice. As to the method:
For the duration of the treatment, the mice were weighed weekly in order to assess any weight changes. After 21 days of treatment, the animals underwent a behavioral test to assess their memory and learning abilities. After the behavioral test, metabolic parameters such as blood glucose (both fasting and under the glycemic curve), body surface area (BSA) and body mass index (BMI) were assessed. Finally, animals were sacrificed using cervical dislocation. The brain and peripheral areas were isolated and collected in liquid nitrogen and subsequently stored at −80° C. until they were used for biochemical analyzes.
Total protein extracts were prepared from the frontal cortex for human autopsy samples and from the hippocampus for mouse samples, using RIPA solution (pH 7.4) containing TrisHCl (50 mM, pH 7.4), NaCl (150 mM), 1% NP-40, 0.25% sodium deoxycholate, ethylenediamine tetracetic acid (EDTA) (1 mM), and 0.1% sodium dodecyl sulfate (SDS). […] For the rest of the experiments, protein extracts were supplemented with cocktails of protease and phosphatase inhibitors (Sigma Aldrich, St Louis, MO, USA). Brain tissues were homogenized in the solution described above by sonication, and centrifuged at 14,000 rpm for 30 min at 4° C. The supernatant was used to determine total protein concentration by means of the bicinchoninic acid assay (BCA, Pierce, Rockford, IL). […]

`N[C@@H](CC(=O)N1CCn2c(nnc2C(F)(F)F)C1)Cc1cc(F)c(F)cc1F` [sitagliptin, (R)-4-oxo-4-[3-(trifluoromethyl)-5,6-dihydro[1,2,4]triazole[4,3-a]pyrazin-7(8H)-yl]-1-(2,4,5-trifluorophenyl)butan-2-amine]: the “frequency and extent of spontaneous release of neurotransmitters” value in data set [1] is reported as “no effect”. Also, in data set [2], the “spontaneous release rate of the neurotransmitter, CA1 hippocampal neurons” value is on record as “completely reverts the increase in the spontaneous release rate of the neurotransmitter”. In addition, the “oxidative stress levels (3-NT, 4-HNE)” value in data set [3] was “reduction”. The “Ab (beta-amyloid 1-42) levels” value in data set [4] is “reduction”. Also, the “phenotypic or morphometric changes (weight, BSA, BMI)” value in data set [5] is on record as “no phenotypic or morphometric changes”. Further, in data set [6], the “activation of the GSK3b protein” value was “increased activation”.
